Data on 10 compounds can be found in ChEMBL document CHEMBL1155952, “4-Amino-6-arylamino-pyrimidine-5-carbaldehyde hydrazones as potent ErbB-2/EGFR dual kinase inhibitors” (Bioorg Med Chem Lett, 2008).

Where only a bound is given, the exact number is not on record here.

The target of data set [1] is T1, Receptor tyrosine-protein kinase erbB-2 (Homo sapiens, UniProt P04626). Briefly: Inhibition of human ErbB2.
Data set [2] addresses Epidermal growth factor receptor (Homo sapiens, UniProt P00533). Briefly: Inhibition of human EGFR expressed in SF9 cells.
Data set [3] addresses T1, Receptor tyrosine-protein kinase erbB-2. Briefly: Inhibition of human ErB2 phosphorylation in human SKBR3 cells. The data set is classed as cell-based, SK-BR-3.
A further data set concerns NCI-N87. Put plainly: Antiproliferative activity against human N87 cells overexpressing ErB2. Format: functional, cell-based.
In another data set the test system is SK-BR-3. Put plainly: Antiproliferative activity against human SKBR3 cells overexpressing ErB2. Format: functional, cell-based.
For a further data set, the system named is HeLa. Briefly: Antiproliferative activity against human HeLa cells. Format: functional, cell-based.
For a further data set, the system named is BT-474. Put plainly: cells. To be noted: Homo sapiens.
The nature of data set [4]: Plasma concentration in Sprague-Dawley rat at 10 mg/kg, po administered in 10% solutol in D5W after 0.5 hrs. Format: ADME, organism-based. Set-up: dose 10 mg/kg, route oral.
Data set [5] can be described thus: Plasma concentration in Sprague-Dawley rat at 10 mg/kg, po administered in 10% solutol in D5W after 1 hr. The data set is classed as ADME, organism-based. Set-up: dose 10 mg/kg, route oral.
Data set [6] is described as follows: Plasma concentration in Sprague-Dawley rat at 10 mg/kg, po administered in 10% solutol in D5W after 2 hrs. The data set is classed as ADME, organism-based. Set-up: dose 10 mg/kg, route oral.
A short description of data set [7]: Plasma concentration in Sprague-Dawley rat at 10 mg/kg, po administered in 10% solutol in D5W after 4 hrs. Set-up: dose 10 mg/kg, route oral. The data set is classed as ADME, organism-based.
The nature of data set [8]: Plasma concentration in Sprague-Dawley rat at 10 mg/kg, po administered in 0.5% hydroxypropyl methylcellulose after 0.5 hrs. Format: ADME, organism-based. Set-up: dose 10 mg/kg, route oral.
Data set [9] in a line: Plasma concentration in Sprague-Dawley rat at 10 mg/kg, po administered in 0.5% hydroxypropyl methylcellulose after 1 hr. The data set is classed as ADME, organism-based. Set-up: dose 10 mg/kg, route oral.
Data set [10] is described as follows: Plasma concentration in Sprague-Dawley rat at 10 mg/kg, po administered in 0.5% hydroxypropyl methylcellulose after 2 hrs. The data set is classed as ADME, organism-based. Set-up: dose 10 mg/kg, route oral.
The target of data set [11] is Tyrosine-protein kinase Lck (Homo sapiens) (UniProt P06239). Put plainly: Inhibition of LCK at 3 uM.
Data set [12] deals with RAF proto-oncogene serine/threonine-protein kinase (Homo sapiens) (UniProt P04049). Put plainly: Inhibition of c-Raf at 3 uM.
Chain of RAF proto-oncogene serine/threonine-protein kinase (Homo sapiens) (P04049 whole entry): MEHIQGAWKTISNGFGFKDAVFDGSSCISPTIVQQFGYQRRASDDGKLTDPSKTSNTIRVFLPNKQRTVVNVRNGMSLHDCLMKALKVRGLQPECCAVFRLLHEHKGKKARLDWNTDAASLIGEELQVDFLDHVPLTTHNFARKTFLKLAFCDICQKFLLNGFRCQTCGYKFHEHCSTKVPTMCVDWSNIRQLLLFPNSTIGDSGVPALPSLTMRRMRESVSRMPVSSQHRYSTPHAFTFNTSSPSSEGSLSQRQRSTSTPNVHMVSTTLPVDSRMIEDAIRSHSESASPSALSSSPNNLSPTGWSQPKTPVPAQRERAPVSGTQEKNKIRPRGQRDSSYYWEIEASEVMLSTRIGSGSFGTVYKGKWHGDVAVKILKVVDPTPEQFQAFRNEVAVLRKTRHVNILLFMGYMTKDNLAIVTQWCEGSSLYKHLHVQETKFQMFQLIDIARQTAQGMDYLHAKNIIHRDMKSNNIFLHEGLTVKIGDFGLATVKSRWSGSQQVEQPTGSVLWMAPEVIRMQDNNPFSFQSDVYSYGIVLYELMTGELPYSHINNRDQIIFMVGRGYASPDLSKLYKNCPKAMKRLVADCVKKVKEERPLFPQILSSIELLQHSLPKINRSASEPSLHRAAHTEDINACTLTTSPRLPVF

Chain of Epidermal growth factor receptor (P00533 whole entry): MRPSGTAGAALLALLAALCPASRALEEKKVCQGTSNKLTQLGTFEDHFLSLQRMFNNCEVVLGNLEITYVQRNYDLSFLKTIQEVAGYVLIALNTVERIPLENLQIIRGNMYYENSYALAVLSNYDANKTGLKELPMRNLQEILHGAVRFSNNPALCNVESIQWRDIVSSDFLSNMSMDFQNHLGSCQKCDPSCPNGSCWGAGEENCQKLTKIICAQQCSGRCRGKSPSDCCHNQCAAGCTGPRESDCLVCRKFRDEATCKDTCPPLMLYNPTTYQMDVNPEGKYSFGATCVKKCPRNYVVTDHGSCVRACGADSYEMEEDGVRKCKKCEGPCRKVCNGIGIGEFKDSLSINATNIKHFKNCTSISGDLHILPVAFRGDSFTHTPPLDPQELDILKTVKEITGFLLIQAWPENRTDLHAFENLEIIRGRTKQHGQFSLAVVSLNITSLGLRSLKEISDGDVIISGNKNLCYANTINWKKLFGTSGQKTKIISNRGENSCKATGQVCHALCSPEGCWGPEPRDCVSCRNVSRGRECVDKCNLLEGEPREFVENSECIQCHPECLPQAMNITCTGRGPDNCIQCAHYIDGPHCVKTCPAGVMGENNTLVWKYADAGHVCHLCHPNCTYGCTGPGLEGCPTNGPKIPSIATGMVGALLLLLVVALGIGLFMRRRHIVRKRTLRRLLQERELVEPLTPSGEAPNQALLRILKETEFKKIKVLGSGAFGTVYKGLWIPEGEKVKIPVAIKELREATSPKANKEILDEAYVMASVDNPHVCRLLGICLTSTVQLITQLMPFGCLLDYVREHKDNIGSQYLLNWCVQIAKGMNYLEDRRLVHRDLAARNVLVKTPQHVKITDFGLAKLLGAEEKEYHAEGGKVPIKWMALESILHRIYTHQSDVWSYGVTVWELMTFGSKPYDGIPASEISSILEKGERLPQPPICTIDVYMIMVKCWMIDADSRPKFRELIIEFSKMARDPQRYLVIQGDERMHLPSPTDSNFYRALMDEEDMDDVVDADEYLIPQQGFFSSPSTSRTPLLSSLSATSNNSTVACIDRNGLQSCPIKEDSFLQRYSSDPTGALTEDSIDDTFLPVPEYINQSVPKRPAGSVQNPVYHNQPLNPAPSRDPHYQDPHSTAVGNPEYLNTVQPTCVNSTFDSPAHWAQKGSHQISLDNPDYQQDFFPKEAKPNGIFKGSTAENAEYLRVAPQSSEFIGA
T1 sequence (P04626 whole entry): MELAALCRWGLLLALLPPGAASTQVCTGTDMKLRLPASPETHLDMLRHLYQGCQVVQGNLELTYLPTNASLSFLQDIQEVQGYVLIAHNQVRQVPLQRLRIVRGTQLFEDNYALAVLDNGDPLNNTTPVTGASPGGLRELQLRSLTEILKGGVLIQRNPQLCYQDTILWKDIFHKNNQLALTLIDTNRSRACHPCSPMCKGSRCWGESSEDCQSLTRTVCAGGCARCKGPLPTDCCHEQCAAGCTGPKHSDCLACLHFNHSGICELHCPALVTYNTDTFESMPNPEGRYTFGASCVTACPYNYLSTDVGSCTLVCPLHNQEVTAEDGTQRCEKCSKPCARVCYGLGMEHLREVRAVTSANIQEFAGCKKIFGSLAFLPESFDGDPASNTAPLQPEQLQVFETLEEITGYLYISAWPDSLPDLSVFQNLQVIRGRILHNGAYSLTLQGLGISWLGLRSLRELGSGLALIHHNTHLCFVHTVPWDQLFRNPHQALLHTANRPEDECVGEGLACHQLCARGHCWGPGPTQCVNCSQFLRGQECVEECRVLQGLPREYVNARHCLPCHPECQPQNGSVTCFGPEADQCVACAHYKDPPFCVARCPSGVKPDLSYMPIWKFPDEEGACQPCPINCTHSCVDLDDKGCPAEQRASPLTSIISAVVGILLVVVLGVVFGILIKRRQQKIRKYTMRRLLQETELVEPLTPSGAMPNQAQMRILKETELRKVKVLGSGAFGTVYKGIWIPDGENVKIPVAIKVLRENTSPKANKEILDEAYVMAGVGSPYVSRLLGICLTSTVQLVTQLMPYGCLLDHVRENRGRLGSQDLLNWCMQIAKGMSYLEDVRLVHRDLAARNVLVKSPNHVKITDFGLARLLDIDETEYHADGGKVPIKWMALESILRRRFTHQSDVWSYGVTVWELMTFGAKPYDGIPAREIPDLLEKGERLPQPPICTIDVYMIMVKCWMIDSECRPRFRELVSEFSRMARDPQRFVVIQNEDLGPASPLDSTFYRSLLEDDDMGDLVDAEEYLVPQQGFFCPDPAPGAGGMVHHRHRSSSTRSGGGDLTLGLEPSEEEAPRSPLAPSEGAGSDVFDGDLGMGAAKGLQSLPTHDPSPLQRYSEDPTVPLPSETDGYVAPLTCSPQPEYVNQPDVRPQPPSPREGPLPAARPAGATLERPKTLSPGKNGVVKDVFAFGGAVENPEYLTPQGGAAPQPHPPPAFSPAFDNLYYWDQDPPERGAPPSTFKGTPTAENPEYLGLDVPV
Chain of Tyrosine-protein kinase Lck (Homo sapiens) (P06239 2-509 limits assumed): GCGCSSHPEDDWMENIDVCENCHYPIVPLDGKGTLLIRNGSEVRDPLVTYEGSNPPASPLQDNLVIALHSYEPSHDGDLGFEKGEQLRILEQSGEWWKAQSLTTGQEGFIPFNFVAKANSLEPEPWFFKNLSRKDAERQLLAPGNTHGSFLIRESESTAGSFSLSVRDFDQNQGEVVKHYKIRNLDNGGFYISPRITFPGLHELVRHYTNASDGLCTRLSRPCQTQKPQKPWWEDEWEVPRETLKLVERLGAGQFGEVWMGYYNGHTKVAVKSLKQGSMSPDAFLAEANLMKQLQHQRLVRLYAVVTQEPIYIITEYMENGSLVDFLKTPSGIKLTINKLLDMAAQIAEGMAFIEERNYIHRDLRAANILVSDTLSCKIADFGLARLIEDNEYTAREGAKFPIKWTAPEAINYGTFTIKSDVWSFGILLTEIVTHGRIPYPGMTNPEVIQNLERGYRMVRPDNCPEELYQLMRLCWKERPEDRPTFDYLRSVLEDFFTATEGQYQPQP
Description for BT-474: Antiproliferative activity against human BT474 cells overexpressing ErB2

In general, IC50 refers to the concentration needed to halve the response being measured. In the case of `Nc1ncnc(Nc2ccc3c(cnn3Cc3cccc(F)c3)c2)c1/C=N/N1CCN(CCO)CC1`, the IC50 in data set [1] is 8 nM; in data set [2], 9 nM; in [3], 54 nM; with NCI-N87 it was 58 nM; in the data set with SK-BR-3, 58 nM; in the data set with HeLa, > 100000 nM. For the same compound, in the data set on BT-474, the IC50 turned out to be 14 nM.

For the compound `CN1CCN(/N=C/c2c(N)ncnc2Nc2ccc3c(cnn3Cc3cccc(F)c3)c2)CC1`, the IC50 in data set [1] was 8 nM; in [2], 16 nM; in data set [3] it was 509 nM.

Regarding `Nc1ncnc(Nc2ccc3c(cnn3Cc3cccc(F)c3)c2)c1/C=N/NCC(F)(F)F`, the IC50 in data set [1] is 20 nM; in data set [2] it was 52 nM; in data set [3], 258 nM.

For `COC[C@@H]1CCCN1/N=C/c1c(N)ncnc1Nc1ccc2c(cnn2Cc2cccc(F)c2)c1`, the results for the IC50 in data set [1], in data set [2] and in data set [3] were 39 nM, 26 nM and 426 nM, respectively.

`COC[C@H]1CCCN1/N=C/c1c(N)ncnc1Nc1ccc2c(cnn2Cc2cccc(F)c2)c1`: the IC50 is 72 nM in data set [1] and 31 nM in data set [2].

For the compound `CN(C)/N=C/c1c(N)ncnc1Nc1ccc2c(cnn2Cc2cccc(F)c2)c1`, the IC50 is 2 nM in data set [1]; 8 nM in data set [2]; 105 nM in data set [3]; 131 nM in the data set with NCI-N87; 148 nM with SK-BR-3; > 100000 nM with HeLa. In the data set on BT-474, this compound came in with an IC50 of 63 nM. Moreover, in data set [4], the concentration at 0.5 h turned out to be 10.1 ng/mL. In addition, the concentration at 1 h in [5] was 6.3 ng/mL. Moreover, the concentration at 2 h in data set [6] is 13.2 ng/mL. This compound also returned a concentration at 4 h in [7] of 4.6 ng/mL.

Usually inhibition stands for how much of the control response was suppressed. For the compound `Nc1ncnc(Nc2ccc3c(cnn3Cc3cccc(F)c3)c2)c1/C=N/N1CCCCC1`, the IC50 in [1] was 18 nM; in data set [3], 148 nM; in the data set with NCI-N87, 365 nM; in the data set with SK-BR-3, 691 nM; in the data set on HeLa, > 10000 nM; in the data set with BT-474, 49 nM. In [8], this compound showed a concentration at 0.5 h of 23.4 ng/mL. This compound also came in with a concentration at 1 h in [9] of 12.6 ng/mL. For the same compound, in data set [10], the concentration at 2 h was determined as 32.4 ng/mL. Further, the inhibition in data set [11] was 60%; in data set [12], 50%.

For the compound `CN/N=C/c1c(N)ncnc1Nc1ccc2c(cnn2Cc2cccc(F)c2)c1`, the IC50 amounted to 84 nM in data set [1], 12 nM in [2] and 361 nM in data set [3].

As for `Nc1ncnc(Nc2ccc3c(cnn3Cc3cccc(F)c3)c2)c1/C=N/N1CCOCC1`, the IC50 in data set [1] was 7 nM; in [2], 16 nM; in data set [3] it was 83 nM; in the data set with NCI-N87, 91 nM; with SK-BR-3 it was 122 nM; in the data set with HeLa, > 100000 nM. This compound registered an IC50 with BT-474 of 31 nM. Besides, the concentration at 0.5 h in data set [8] was 26.1 ng/mL. For the same compound, the concentration at 1 h in [9] came to 21.6 ng/mL. This compound also came in with a concentration at 2 h in [10] of 1.5 ng/mL. For the same compound, the results for the inhibition in data set [11] and in data set [12] were 71% and 47%, respectively.

For the compound `COc1ccc(/N=C/c2c(N)ncnc2Nc2ccc3c(cnn3Cc3cccc(F)c3)c2)cc1`, the IC50 in data set [1] amounted to 118 nM; in [2], 49 nM; in [3] it was 1290 nM.
